We go through three compounds from patent US8530653B2, “Enzyme inhibiting compounds” (Chelsea Therapeutics, Inc., priority 2009, dated 2013).

As usually defined, the IC50 is the point on the concentration scale where inhibition reaches its midpoint.

The structures appear in SMILES notation.

This assay concerns the target T1, human dihydrofolate reductase (DHFR) (Homo sapiens, UniProt P00374).
T1 sequence (P00374 1-187): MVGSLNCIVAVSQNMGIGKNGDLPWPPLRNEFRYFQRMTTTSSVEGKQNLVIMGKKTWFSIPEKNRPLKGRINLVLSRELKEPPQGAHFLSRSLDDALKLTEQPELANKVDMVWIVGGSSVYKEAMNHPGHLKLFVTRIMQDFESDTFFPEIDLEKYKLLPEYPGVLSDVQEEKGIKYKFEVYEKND
The assay can be described thus: Inhibition of human DHFR (spectrophotometric, decrease in absorbance at 340 nm). Type of assay: biochemical. The following applies: recombinant human DHFR 0.2 μg/mL, 0.1 mM dihydrofolate, 0.1 mM NADPH, pH 7.3, 37° C., 1% DMSO, triplicate. The procedure:
The activity of multiple compounds as inhibitors of human dihydrofolate reductase (DHFR) was evaluated. The dry test compounds were dissolved in 100% DMSO at a concentration of 10 mM. For the test assays, the compounds were serially diluted in 100% DMSO and added to the assays so that the final concentration of DMSO in the assays was 1%.
The final assay conditions for the human DHFR assays were: […] KPO4 (pH7.3), 250 mM KCl, 0.1 mM dihydrofolate, 0.1 mM NADPH, 1% DMSO, and 0.2 μg/mL recombinant human DHFR. The final volume of the assay was 800 μL in a semi-micro cuvet.
A decrease in absorbance at 340 nm was monitored for three minutes in a Cary spectrophotometer at 37° C. The concentrations used for each compound across a range of 10,000 to 0.08 nM, depending on the expected level of activity. The assays were done in triplicate for each compound. […] A minimum of seven concentrations were used to generate a curve, and IC50 values were calculated using the Standard Curve Analysis of Sigma Plot Enzyme Kinetics software.
Turning to `C=C(CC(NC(=O)c1ccc(CCc2ccc3nc(N)nc(N)c3c2)cc1)C(=O)O)C(=O)O` (stereo not drawn) [Comparative, 2-{4-[2-(2,4-diamino-quinazolin-6-yl)-ethyl]-benzoylamino}-4-methylidene-pentanedioic acid, reference compound], the IC50 was 5.4 nM.
The figure for `Nc1nc(N)c2cc(CCc3ccc(C(=O)NCC[C@@H](O)C[C@@H](O)CC(=O)O)cc3)ccc2n1` [Inventive 1] is 8.65 nM; for `Nc1nc(N)c2cc(CCc3ccc(CNCC[C@@H](O)C[C@@H](O)CC(=O)O)cc3)ccc2n1` [Inventive 2] it is 670 nM.
